# Entries after “also recorded” stand apart in the source; their conditions may differ.
# What was measured:
# SIVmac251 = test: Weekly intravaginal SIVmac251 challenge of vaccinated and/or SAMT-247 gel treated female macaques; assay type: in vivo, Rhesus macaques
# Excerpt: Animals. Fifty female Indian Rhesus macaques obtained from the free-range breeding colony on Morgan Island, South Carolina, were used in this study. The macaques, aged 2 to 3 years at study initiation, were negative for SIV, simian retrovirus, and STLV, and were MHC typed before being divided into 4 groups: vaccine/microbicide group (20 macaques, 3 A*01 positive, 1 B*17 positive, 1 B*08 positive); vaccine only group (18 macaques, 3 A*01 positive, 1 B*17 positive); microbicide only group (6 macaques, 1 both A*01 positive and B*17 positive) and control group (6 macaques, 1 both A*01 positive and B*17 positive). Data on 37 historical naïve controls intravaginally challenged with the same dose and lot of SIVmac251 were added to the control group to increase statistical power. […]
# Immunization and Challenge. […] Up to 14 challenges were administered until the macaques became SIV positive as assessed by droplet digital PCR. […]
# Statistical analysis. […] Comparisons of differences between groups in the number of challenges before viral acquisition were assessed using the log-rank (Mantel-Cox) test of the discrete-time proportional hazards model. […] Correlation analyses were performed using the non-parametric Spearman rank correlation method with exact permutation and approximate two-tailed P values calculated for the number of pairs≤17 and >17, respectively. […]
# NKG2A^+ cells = test: Zinc chelation: macaque blood NK cells, SAMT-247 and/or gp120 peptides with or without TPEN; assay type: cell-based; settings: presence or absence of gp120 peptide
# Method: Zinc chelation: The frequencies and cytokine levels of NK cells, monocytes and T cells were measured in macaque blood. Cryopreserved PBMCs were thawed and cultured in R10 in the presence/or absence of SAMT-247 and/or gp120 peptides for 12 hours. Cells were incubated with or without Zinc chelator TPEN (cat. #P4413-100 MG, 5 μM) for 12 h. Subsequently, cells were stained for live cells with Live/Dead Blue dye (cat. #L34962, 0.5 μl) from Thermofisher; followed by surface staining with the following: Alexa 700 anti-CD3 (SP34-2; cat. #557917, 5 μl), BV711 anti-CD4 (L200; cat. #563913, 5 μl), BB700 anti-CD8 (RPA-T8; cat. #566452, 5 μl), BUV737 anti-CD20 (2H7; cat. #612848, 5 μl), PE anti-CD45 (D058-1283; cat. #552833, 5 μl), BV786 anti-CCR5 (3A9; cat. #565001, 5 μl), BV496 anti-CD16 (3G8; cat. #612944, 5 μl), BUV661 anti-HLA-DR (G46-6; cat. #612980, 5 μl), BUV805 anti-CD14 (M5E2; cat. #565779, 5 μl) from BD Biosciences; APC-H7 anti-CD11b (ICRF44; cat. #47-0118-42, 5 μl), PE-Cy5 anti-CD95 (ICRF44; cat. #15-0959-42, 5 μl) from eBioscience; APC anti-α4β7, provided by the NIH Nonhuman Primate Reagent Resource (R24 OD010976, and NIAID contract HHSN272201300031C); BV605 anti-CCR6 (G034E3; cat. #353420, 5 μl), BV650 anti-CXCR3 (G025H7; cat. #353730, 5 μl), from Biolegend and PE-Cy7 anti-NKG2A (Z199; cat. #B10246, 5 μl) from Beckman coulter for 30 minutes at room temperature. This was followed by permeabilization with a FOX3-transcription buffer set (cat. #00-5523-00) from eBioscience according to the manufacture's recommendation and subsequently intracellular staining with the following: BV750 anti-TNF-α (MAB11; cat. #566359, 5 μl), BUV395 anti-IFN-γ (B27; cat. #563563, 5 μl), BV510 anti-GranB (GB11; cat. #563388, 5 μl), BV421 anti-IL-10 (JES3-9D7; cat. #564053, 5 μl), PE-CF594 anti-Ki67 (B56; cat. #567120, 5 μl) from BD Biosciences and FITC anti-Perforin (pf-344; cat. #3465-7, 5 μl) from MABTECH for 30 minutes at room temperature. Flow cytometry acquisitions were performed on a FACSYMPHONY™ A5 and examined using FACSDIVA™ software (BD Biosciences).
compound,measurement,setting,value
CC(=O)Sc1ccccc1C(=O)NCCC(N)=O [SAMT-247],risk of virus acquisition compared to controls,"SIVmac251; female macaques, up to 14 weekly intravaginal SIVmac251 exposures, SAMT-247 0.8% in HEC gel 4 h before each challenge",No differences in delayed acquisition; also recorded: did not significantly decrease; also recorded: had no effect
same,"peak virus levels, SAMT-247 only group vs controls","SIVmac251; infected animals, peak VL at week 2",no difference
same,frequency of NKG2A^+ cells,NKG2A^+ cells,increased

# Reference: patent US20240277829A1, “HIV-1 VACCINATION AND SAMT-247 MICROBICIDE TO PREVENT HIV-1 INFECTION” (priority 2021, published 2024)
